In ChEMBL document CHEMBL1142557, “Novel bioactive sulfated alkene and alkanes from the mediterranean ascidian Halocynthia papillosa” (J Nat Prod, 2000):
Values after ≈ are worked out from the molar mass of the structure shown. Active and inactive are the calls of the source. No cut-off for these calls is given here.

Columns and labels:
WEHI-164 = assay: Cytotoxicity against mouse WEHI164 cells assessed as cell viability after 96 hrs by MTT assay; type: functional, cell-based; conditions: WEHI-164, 96 h
C6 = assay: Cytotoxicity against rat C6 cells assessed as cell viability after 96 hrs by MTT assay; type: functional, cell-based; conditions: for IC50: C6, 96 h

Structure (SMILES) | IC50 (WEHI-164) [µg/mL] | IC50 (C6) [µg/mL] | Activity (C6)
Sc1ncnc2nc[nH]c12 [MERCAPTOPURINE ANHYDROUS] | 1.3 (≈ 8.54 µM) | 30.2 (≈ 198 µM) | 
CC(C)CCCCCOS(=O)(=O)O | 15 (≈ 71.3 µM) | 545 (≈ 2590 µM) | 
CC(C)CCC[C@@H](C)COS(=O)(=O)O | 20.9 (≈ 93.2 µM) |  | inactive
CCC=CCCCCOS(=O)(=O)O | 12.2 (≈ 58.6 µM) | 515 (≈ 2470 µM) | 
